Measurements published in ChEMBL document CHEMBL5465560, “Selectivity Literature for EUbOPEN Chemogenomic Library” (2024).

Tests used:
[1] = target: Voltage-dependent L-type calcium channel subunit alpha-1C (Homo sapiens, UniProt Q13936); assay: Selectivity interaction (CEREP selectivity screen) EUB0000318b CACNA1C; settings: at 10 µM
[2] = target: T1, 4-aminobutyrate aminotransferase, mitochondrial (Homo sapiens, UniProt P80404); assay: (§1) Selectivity interaction (GPCR panel (PDSP screen)) EUB0000318b ABAT
T1 sequence (P80404 whole entry): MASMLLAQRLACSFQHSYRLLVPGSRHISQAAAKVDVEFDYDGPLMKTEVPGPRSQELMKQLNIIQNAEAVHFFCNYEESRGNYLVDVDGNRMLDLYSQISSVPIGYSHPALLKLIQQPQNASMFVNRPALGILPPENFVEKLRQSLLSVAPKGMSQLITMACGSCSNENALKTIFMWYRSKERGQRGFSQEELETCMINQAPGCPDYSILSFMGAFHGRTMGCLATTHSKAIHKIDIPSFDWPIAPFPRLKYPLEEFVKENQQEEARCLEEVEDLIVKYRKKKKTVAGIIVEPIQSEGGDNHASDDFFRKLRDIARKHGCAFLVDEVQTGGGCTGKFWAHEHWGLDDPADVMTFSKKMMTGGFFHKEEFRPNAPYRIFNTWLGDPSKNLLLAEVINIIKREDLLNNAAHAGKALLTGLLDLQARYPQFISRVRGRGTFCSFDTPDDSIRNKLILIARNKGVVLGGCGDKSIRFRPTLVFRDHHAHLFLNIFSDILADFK

[3] = target: T1, 4-aminobutyrate aminotransferase, mitochondrial; assay: as §1; settings: at 10 µM
[4] = target: 5-hydroxytryptamine receptor 2A (Homo sapiens, UniProt P28223); assay: Selectivity interaction (CEREP selectivity screen) EUB0000318b HTR2A; settings: at 10 µM
[5] = target: T2, Mitogen-activated protein kinase kinase kinase 5 (Homo sapiens) (UniProt Q99683); assay: Selectivity interaction (KinomeScan (DiscoverX)) EUB0000318b MAP3K5; settings: at 1 µM
T2 sequence (whole entry): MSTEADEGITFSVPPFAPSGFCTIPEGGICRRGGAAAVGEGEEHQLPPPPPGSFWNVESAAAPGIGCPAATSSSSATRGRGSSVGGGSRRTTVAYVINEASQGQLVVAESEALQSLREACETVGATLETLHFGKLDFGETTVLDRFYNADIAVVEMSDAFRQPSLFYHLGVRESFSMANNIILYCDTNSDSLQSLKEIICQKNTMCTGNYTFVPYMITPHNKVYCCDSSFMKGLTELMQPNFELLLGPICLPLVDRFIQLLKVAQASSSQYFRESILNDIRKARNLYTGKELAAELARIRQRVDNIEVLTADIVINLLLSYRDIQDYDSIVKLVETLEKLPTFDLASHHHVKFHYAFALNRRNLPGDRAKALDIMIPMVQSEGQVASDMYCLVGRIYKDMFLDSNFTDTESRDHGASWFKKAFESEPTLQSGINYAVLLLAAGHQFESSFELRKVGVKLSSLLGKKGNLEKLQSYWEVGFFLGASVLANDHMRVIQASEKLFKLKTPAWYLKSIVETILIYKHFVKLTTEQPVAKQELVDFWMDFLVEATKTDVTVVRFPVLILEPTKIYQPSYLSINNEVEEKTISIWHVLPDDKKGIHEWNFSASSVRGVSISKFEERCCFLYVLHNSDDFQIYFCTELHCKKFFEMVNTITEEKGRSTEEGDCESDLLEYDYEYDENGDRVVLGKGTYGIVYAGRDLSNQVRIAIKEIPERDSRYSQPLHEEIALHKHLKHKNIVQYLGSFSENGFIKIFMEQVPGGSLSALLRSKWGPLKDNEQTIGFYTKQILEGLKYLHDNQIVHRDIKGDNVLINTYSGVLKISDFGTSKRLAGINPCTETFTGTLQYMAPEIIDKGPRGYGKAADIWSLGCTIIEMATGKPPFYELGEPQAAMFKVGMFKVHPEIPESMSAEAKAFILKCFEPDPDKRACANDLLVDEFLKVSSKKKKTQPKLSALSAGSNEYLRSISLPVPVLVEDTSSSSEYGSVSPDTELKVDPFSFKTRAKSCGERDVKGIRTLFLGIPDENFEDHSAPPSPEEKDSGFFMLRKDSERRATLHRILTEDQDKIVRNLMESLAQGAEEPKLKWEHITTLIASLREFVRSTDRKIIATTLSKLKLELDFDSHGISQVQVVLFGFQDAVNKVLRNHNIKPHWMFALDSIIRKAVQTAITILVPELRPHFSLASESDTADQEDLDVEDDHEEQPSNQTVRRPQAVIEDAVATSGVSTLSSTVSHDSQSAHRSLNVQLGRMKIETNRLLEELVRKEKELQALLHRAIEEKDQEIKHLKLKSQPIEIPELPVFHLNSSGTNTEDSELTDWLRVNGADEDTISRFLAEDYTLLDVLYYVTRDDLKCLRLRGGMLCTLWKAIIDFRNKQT

[6] = target: T3, Serine/threonine-protein kinase Nek1 (Homo sapiens) (UniProt Q96PY6); assay: Selectivity interaction (KinomeScan (DiscoverX)) EUB0000318b NEK1; settings: at 1 µM
T3 sequence (whole entry): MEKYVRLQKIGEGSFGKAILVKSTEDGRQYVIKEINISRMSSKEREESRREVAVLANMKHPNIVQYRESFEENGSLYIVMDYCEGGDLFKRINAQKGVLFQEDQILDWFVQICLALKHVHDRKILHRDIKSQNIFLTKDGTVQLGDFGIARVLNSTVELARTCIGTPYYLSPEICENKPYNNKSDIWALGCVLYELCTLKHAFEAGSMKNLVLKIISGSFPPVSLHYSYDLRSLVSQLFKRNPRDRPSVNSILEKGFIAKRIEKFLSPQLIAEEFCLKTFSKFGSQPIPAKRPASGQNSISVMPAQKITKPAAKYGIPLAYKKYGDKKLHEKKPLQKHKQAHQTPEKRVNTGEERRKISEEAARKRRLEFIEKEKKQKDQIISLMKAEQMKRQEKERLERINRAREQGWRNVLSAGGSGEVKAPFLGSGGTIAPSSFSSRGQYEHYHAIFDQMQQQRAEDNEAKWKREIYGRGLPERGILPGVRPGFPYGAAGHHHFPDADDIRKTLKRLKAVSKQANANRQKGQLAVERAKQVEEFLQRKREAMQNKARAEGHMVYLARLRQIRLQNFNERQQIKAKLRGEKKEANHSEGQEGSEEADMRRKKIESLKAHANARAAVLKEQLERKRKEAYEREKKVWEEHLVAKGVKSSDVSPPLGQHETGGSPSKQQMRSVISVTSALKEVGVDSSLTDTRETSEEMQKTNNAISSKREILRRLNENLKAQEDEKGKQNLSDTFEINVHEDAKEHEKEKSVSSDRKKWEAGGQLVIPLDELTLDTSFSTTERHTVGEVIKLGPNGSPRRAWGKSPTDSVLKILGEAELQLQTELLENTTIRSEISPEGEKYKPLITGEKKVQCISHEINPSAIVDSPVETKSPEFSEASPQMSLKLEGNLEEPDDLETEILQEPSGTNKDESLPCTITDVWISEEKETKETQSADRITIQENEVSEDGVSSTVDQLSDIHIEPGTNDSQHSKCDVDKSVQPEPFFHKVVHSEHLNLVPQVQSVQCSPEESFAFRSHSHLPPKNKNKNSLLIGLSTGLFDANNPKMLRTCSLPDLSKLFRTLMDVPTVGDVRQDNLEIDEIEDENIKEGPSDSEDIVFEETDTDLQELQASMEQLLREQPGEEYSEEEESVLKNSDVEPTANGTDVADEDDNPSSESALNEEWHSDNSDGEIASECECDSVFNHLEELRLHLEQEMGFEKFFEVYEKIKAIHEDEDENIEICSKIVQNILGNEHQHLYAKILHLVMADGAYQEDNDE

[7] = target: Sodium channel regulatory subunit beta-1 (Homo sapiens) (UniProt Q07699); assay: Selectivity interaction (CEREP selectivity screen) EUB0000318b SCN1B; settings: at 10 µM
Sodium channel regulatory subunit beta-1 (Homo sapiens), sequence (Q07699 whole entry): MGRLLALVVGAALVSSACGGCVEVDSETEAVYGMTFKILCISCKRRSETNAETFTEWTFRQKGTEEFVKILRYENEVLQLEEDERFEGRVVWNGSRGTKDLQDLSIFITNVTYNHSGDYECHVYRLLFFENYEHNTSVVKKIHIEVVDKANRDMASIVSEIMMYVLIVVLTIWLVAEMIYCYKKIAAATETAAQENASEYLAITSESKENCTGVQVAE

[8] = target: Sigma non-opioid intracellular receptor 1 (Homo sapiens) (UniProt Q99720); assay: Selectivity interaction (GPCR panel (PDSP screen)) EUB0000318b SIGMAR1; settings: at 10 µM
Sigma non-opioid intracellular receptor 1 (Homo sapiens), sequence (Q99720 whole entry): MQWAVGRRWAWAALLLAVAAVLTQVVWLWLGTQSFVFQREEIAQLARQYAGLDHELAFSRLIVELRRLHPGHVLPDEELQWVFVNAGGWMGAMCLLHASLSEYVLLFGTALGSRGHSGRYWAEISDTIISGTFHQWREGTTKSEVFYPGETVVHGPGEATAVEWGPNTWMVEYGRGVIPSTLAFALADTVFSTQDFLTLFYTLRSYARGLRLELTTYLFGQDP

[9] = target: Sodium-dependent noradrenaline transporter (Homo sapiens, UniProt P23975); assay: Selectivity interaction (CEREP selectivity screen) EUB0000318b SLC6A2; settings: at 10 µM
Sodium-dependent noradrenaline transporter, sequence (P23975 whole entry): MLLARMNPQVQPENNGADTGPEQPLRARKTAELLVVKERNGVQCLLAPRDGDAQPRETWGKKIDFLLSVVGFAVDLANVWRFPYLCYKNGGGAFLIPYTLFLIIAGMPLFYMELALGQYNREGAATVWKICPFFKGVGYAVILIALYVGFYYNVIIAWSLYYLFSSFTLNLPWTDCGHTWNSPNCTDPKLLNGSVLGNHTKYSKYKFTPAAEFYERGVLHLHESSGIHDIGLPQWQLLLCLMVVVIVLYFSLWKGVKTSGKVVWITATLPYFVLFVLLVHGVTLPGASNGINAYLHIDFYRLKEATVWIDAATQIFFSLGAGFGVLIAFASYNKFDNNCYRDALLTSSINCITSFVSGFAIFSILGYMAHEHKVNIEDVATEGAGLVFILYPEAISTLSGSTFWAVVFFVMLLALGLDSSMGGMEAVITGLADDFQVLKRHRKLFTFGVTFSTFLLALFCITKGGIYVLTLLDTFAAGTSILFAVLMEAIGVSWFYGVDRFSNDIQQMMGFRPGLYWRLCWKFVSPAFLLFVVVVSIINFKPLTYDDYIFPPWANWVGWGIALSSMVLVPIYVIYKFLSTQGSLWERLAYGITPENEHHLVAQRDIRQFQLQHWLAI

[10] = target: Tyrosine-protein kinase ABL1 (Homo sapiens, UniProt P00519); assay: Selectivity interaction (TR-FRET binding assay) EUB0000644a ABL1
[11] = target: ALK tyrosine kinase receptor (Homo sapiens, UniProt Q9UM73); assay: Selectivity interaction (TR-FRET binding assay) EUB0000644a ALK
Aurora kinase B = Aurora kinase B (Homo sapiens, UniProt Q96GD4); assay: Selectivity interaction (TR-FRET binding assay) EUB0000644a AURKB
[12] = target: Tyrosine-protein kinase BTK (Homo sapiens, UniProt Q06187); assay: Selectivity interaction (TR-FRET binding assay) EUB0000644a BTK
Tyrosine-protein kinase BTK, sequence (Q06187 whole entry): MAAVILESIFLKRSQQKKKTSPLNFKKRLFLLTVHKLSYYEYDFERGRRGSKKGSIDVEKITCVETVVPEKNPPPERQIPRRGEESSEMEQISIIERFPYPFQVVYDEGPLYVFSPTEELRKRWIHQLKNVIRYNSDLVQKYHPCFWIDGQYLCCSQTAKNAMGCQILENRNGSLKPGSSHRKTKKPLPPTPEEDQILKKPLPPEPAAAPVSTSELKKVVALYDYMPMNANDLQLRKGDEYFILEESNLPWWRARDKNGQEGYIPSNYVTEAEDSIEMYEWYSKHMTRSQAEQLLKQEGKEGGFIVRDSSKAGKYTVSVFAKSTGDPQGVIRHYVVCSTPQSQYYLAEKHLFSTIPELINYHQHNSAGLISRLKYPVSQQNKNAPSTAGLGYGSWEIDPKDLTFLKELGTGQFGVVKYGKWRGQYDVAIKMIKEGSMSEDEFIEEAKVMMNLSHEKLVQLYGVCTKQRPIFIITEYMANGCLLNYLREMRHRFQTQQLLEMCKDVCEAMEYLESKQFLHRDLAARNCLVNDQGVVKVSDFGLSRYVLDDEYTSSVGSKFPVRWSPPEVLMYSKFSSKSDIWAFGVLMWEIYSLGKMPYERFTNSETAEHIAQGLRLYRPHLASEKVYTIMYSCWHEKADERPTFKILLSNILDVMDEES

[13] = target: Cyclin-dependent kinase 11A (Homo sapiens, UniProt Q9UQ88); assay: Selectivity interaction (TR-FRET binding assay) EUB0000644a CDK11A
[14] = target: Cyclin-dependent kinase 2 (Homo sapiens, UniProt P24941); assay: Selectivity interaction (TR-FRET binding assay) EUB0000644a CDK2
CDK8/Cyclin C = CDK8/Cyclin C (Homo sapiens, UniProt P49336); assay: Selectivity interaction (TR-FRET binding assay) EUB0000644a CDK8; type: protein-complex assay
CDK7/Cyclin H/MNAT1 = CDK7/Cyclin H/MNAT1 (Homo sapiens, UniProt P50613); assay: Selectivity interaction (TR-FRET binding assay) EUB0000644a […]; type: protein-complex assay
[15] = target: Epidermal growth factor receptor (Homo sapiens, UniProt P00533); assay: Selectivity interaction (TR-FRET binding assay) EUB0000644a EGFR
[16] = target: G protein-coupled receptor kinase 5 (Homo sapiens, UniProt P34947); assay: Selectivity interaction (TR-FRET binding assay) EUB0000644a GRK5
G protein-coupled receptor kinase 5, sequence (P34947 whole entry): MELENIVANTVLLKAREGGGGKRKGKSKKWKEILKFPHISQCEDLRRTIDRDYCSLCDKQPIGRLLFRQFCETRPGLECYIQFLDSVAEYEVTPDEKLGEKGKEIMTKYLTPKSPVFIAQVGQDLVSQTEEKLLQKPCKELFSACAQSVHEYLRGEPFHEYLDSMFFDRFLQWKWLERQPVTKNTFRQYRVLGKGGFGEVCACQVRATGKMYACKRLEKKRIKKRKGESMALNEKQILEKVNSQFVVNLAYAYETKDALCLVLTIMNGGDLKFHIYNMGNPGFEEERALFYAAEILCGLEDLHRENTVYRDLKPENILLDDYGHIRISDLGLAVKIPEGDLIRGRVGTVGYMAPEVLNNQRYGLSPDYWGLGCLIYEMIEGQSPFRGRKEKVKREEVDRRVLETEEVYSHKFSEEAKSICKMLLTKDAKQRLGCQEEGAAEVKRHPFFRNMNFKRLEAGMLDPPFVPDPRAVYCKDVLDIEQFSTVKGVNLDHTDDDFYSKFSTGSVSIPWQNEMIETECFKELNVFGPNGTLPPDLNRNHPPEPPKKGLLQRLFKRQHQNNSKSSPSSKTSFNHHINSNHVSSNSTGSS

[17] = target: Vascular endothelial growth factor receptor 2 (Homo sapiens, UniProt P35968); assay: Selectivity interaction (TR-FRET binding assay) EUB0000644a KDR
[18] = target: Tyrosine-protein kinase Lck (Homo sapiens, UniProt P06239); assay: Selectivity interaction (TR-FRET binding assay) EUB0000644a LCK
[19] = target: Mitogen-activated protein kinase 14 (Homo sapiens, UniProt Q16539); assay: Selectivity interaction (TR-FRET binding assay) EUB0000644a MAPK14
[20] = target: Mitogen-activated protein kinase 8 (Homo sapiens, UniProt P45983); assay: Selectivity interaction (TR-FRET binding assay) EUB0000644a MAPK8
[21] = target: Hepatocyte growth factor receptor (Homo sapiens, UniProt P08581); assay: Selectivity interaction (TR-FRET binding assay) EUB0000644a MET
[22] = target: 5'-AMP-activated protein kinase catalytic subunit alpha-1 (Homo sapiens, UniProt Q13131); assay: Selectivity interaction (TR-FRET binding assay) EUB0000644a PRKAA1
[23] = target: cAMP-dependent protein kinase catalytic subunit alpha (Homo sapiens, UniProt P17612); assay: Selectivity interaction (TR-FRET binding assay) EUB0000644a PRKACA
[24] = target: Ribosomal protein S6 kinase alpha-3 (Homo sapiens, UniProt P51812); assay: Selectivity interaction (TR-FRET binding assay) EUB0000644a RPS6KA3
[25] = target: Tyrosine-protein kinase SYK (Homo sapiens, UniProt P43405); assay: Selectivity interaction (TR-FRET binding assay) EUB0000644a SYK

Voltage-dependent L-type calcium channel subunit alpha-1C, sequence (Q13936 whole entry): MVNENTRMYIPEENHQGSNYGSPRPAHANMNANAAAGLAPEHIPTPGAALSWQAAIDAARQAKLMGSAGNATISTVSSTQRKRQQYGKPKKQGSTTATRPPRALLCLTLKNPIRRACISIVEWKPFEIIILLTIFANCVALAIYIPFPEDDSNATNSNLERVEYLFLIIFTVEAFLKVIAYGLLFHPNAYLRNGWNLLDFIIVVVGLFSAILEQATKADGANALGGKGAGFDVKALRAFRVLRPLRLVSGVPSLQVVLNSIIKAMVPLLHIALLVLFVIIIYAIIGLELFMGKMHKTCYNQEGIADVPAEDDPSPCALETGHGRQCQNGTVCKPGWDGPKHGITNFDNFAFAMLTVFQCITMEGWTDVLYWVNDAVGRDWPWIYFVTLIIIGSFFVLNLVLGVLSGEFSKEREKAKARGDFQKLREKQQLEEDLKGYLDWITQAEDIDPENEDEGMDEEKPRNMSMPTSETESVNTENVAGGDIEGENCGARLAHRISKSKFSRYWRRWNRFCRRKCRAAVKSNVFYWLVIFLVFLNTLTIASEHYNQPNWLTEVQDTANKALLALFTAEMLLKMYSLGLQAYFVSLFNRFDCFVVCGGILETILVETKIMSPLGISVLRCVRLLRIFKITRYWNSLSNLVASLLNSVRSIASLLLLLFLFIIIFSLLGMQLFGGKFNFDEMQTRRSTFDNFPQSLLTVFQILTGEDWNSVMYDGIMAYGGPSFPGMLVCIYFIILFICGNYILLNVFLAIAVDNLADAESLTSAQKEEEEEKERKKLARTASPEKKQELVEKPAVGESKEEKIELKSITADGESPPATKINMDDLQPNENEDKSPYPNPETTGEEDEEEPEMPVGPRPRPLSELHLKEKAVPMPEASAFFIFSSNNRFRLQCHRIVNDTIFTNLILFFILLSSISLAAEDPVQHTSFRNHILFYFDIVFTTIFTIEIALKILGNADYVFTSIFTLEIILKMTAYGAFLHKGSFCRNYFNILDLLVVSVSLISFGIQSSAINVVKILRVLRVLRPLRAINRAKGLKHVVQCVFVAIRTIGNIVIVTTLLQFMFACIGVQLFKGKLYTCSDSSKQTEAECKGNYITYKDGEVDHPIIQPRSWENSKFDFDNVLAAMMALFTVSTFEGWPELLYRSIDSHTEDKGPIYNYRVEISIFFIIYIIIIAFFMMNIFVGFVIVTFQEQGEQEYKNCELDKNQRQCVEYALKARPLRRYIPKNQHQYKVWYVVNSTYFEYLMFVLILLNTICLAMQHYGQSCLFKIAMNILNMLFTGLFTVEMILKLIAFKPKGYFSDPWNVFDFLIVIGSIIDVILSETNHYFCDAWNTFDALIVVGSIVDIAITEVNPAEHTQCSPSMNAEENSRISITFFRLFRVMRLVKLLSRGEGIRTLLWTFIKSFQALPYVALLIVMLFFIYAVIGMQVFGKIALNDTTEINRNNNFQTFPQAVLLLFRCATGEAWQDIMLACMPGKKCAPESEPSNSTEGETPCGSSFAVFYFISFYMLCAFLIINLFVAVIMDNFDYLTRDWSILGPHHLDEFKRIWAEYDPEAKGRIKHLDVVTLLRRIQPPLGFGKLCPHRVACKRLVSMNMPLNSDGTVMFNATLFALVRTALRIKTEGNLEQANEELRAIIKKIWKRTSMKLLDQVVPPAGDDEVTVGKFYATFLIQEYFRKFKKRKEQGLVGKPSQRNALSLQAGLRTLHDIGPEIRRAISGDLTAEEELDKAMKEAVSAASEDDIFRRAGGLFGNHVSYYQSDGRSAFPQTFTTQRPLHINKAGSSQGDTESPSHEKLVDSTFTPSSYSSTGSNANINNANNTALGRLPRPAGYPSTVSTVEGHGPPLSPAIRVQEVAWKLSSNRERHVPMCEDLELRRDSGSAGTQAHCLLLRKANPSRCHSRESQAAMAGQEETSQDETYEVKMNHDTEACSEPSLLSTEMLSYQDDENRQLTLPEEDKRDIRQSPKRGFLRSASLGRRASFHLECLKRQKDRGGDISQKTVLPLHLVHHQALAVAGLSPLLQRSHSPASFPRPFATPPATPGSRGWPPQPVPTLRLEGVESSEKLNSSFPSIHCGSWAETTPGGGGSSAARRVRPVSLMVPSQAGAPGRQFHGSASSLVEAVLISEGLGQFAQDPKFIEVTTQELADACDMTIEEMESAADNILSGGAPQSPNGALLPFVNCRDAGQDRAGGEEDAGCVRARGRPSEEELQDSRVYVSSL

## O=C(NC[C@@H]1[C@H]2CN(C(=O)OCc3cc(C(F)(F)F)cc(C(F)(F)F)c3)C[C@@H]12)c1ccc2[nH]nnc2c1 [BI 2545]
[1]
  % of inhibition: 80%
[2]
  Ki: 2.56 µM
[3]
  % of inhibition: 63.7%
[4]
  % of inhibition: 55%
[5]
  % of control: 13%
[6]
  % of control: 44%
[7]
  % of inhibition: 66%
[8]
  % of inhibition: 51.2%
[9]
  % of inhibition: 61%

## CC[C@@H]1CN(C(=O)NCC(F)(F)F)C[C@@H]1c1cnc2cnc3[nH]ccc3n12 [UPADACITINIB]
[10]
  IC50: > 10 µM
[11]
  IC50: 5.5 µM
Aurora kinase B
  IC50: 5.5 µM
[12]
  IC50: > 10 µM
[13]
  IC50: > 10 µM
[14]
  IC50: > 10 µM
CDK8/Cyclin C
  IC50: > 10 µM
CDK7/Cyclin H/MNAT1
  IC50: > 10 µM
[15]
  IC50: > 10 µM
[16]
  IC50: 7.9 µM
[17]
  IC50: 1.5 µM
[18]
  IC50: 10 µM
[19]
  IC50: > 10 µM
[20]
  IC50: > 10 µM
[21]
  IC50: > 10 µM
[22]
  IC50: 4.5 µM
[23]
  IC50: > 10 µM
[24]
  IC50: 9.6 µM
[25]
  IC50: > 10 µM
